Assays:
[1] = test system: TGF-β-stimulated SMAD3 phosphorylation in BEAS-2B cells; experiment: Cellular ALK5 potency assay, inhibition of TGF-β stimulated pSMAD3 formation in BEAS-2B cells; assay type: cell-based; conditions: Homo sapiens; inhibition of TGF-β stimulated pSMAD3 formation, BEAS-2B cells; read-out: BEAS2B pIC50 (converted)
How it was run: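 BEAS-2B human lung epithelial cells pre-treated 1 h at 37° C with compound in HBSS/25 mM HEPES/1% BSA, then stimulated 30 min with 10 ng/mL TGF-β (final). Lysates assayed for pSMAD3 by AlphaLISA; pIC50 from dose-dependent change versus stimulated untreated cells.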

[2] = molecular target: T1, recombinant human ALK5 (TGF-βR1) protein (Homo sapiens, UniProt P36897); experiment: Biochemical ALK5 (TGF-βR1) assay to measure pKi (LANCE Ultra ULight kinase assay); conditions: apparent pKi from pIC50 by Cheng-Prusoff, read-out: ALK5 pKi (converted)
T1 construct: purchased Life Technologies PR9075A
T1 sequence (P36897 34-503): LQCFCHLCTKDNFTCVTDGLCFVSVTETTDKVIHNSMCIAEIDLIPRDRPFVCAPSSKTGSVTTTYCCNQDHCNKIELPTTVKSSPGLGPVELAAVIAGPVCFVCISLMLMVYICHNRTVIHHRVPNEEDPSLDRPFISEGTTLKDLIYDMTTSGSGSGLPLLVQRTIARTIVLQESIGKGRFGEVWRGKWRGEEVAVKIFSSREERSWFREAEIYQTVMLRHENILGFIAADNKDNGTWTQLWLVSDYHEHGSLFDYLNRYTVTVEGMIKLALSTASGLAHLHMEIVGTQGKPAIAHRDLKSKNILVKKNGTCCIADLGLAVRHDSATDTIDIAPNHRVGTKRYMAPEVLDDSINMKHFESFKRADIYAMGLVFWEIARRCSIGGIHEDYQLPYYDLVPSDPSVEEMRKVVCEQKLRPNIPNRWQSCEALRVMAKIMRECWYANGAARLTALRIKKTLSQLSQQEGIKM
How it was run: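 After a 60 min room-temperature preincubation of ALK5 with compound, phosphorylation proceeds 60 min at 37 °C on ATP addition (125 μM as 5× stock). Detection: Eu-labelled phospho-Thr1342 Topo IIα antibody in EDTA buffer, pH 7.0; emission 665 nm.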

SMILES | IC50 [1] [nM] | Ki [2] [nM]
Cc1cccc(-c2n[nH]cc2-c2ccc3ncc(-c4nnn5c4CNCC5)cc3n2)n1 [Compound 130, 2-[3-(6-methyl-2-pyridyl)-1H-pyrazol-4-yl]-7-(4,5,6,7-tetrahydrotriazolo[1,5-a]pyrazin-3-yl)-1,5-naphthyridine] | 25.1 to 158 | 0.0398 to 0.316
Cc1cccc(-c2[nH]cnc2-c2ccc3ncc(N4CC5(CNC5)C4)cc3c2)n1 [Compound 131, 3-(2,6-diazaspiro[3.3]heptan-2-yl)-6-[5-(6-methyl-2-pyridyl)-1H-imidazol-4-yl]quinoline] | 25.1 to 158 | < 0.0316
Cc1cccc(-c2n[nH]cc2-c2ccc3ncc(N4CCN(Cc5cccnc5)CC4)cc3n2)n1 [Compound 132, 2-[3-(6-methyl-2-pyridyl)-1H-pyrazol-4-yl]-7-[4-(3-pyridylmethyl)piperazin-1-yl]-1,5-naphthyridine] | 25.1 to 158 | 0.0398 to 0.316
Cc1cccc(-c2n[nH]cc2-c2ccc3ncc(-n4cc(-c5ccccc5)nn4)cc3n2)n1 [Compound 133, 2-[3-(6-methyl-2-pyridyl)-1H-pyrazol-4-yl]-7-(4-phenyltriazol-1-yl)-1,5-naphthyridine] | 25.1 to 158 | 0.398 to 3.16
Cc1cccc(-c2n[nH]cc2-c2ccc3ncc(-c4nc5c([nH]4)CCNC5)cc3n2)n1 [Compound 134, 2-[3-(6-methyl-2-pyridyl)-1H-pyrazol-4-yl]-7-(4,5,6,7-tetrahydro-1H-imidazo[4,5-c]pyridin-2-yl)-1,5-naphthyridine] | 1580 to 10000 | 0.0398 to 0.316
Cc1nc(-c2n[nH]cc2-c2ccc3ncc(N4CC[C@H](N(C)C)C4)cc3n2)ccc1F [Compound 135, (3S)-1-[6-[3-(5-fluoro-6-methyl-2-pyridyl)-1H-pyrazol-4-yl]-1,5-naphthyridin-3-yl]-N,N-dimethyl-pyrrolidin-3-amine] | 25.1 to 158 | < 0.0316
Cc1cccc(-c2[nH]cnc2-c2ccc3ncc(-c4cncc(C(=O)OC5CCNCC5)c4)cc3c2)n1 [Compound 136, 4-piperidyl 5-[6-[5-(6-methyl-2-pyridyl)-1H-imidazol-4-yl]-3-quinolyl]pyridine-3-carboxylate] | 200 to 1260 | 0.0398 to 0.316
COC(=O)C1CN(CCNc2cnc3ccc(-c4c[nH]nc4-c4cccc(C)n4)nc3c2)CCN1 (stereo not drawn) [Compound 137, methyl 4-[2-[[6-[3-(6-methyl-2-pyridyl)-1H-pyrazol-4-yl]-1,5-naphthyridin-3-yl]amino]ethyl]piperazine-2-carboxylate] | 1580 to 10000 | 0.0398 to 0.316
Cc1cccc(-c2[nH]cnc2-c2ccc3ncc(C4=CC(N)CCC4)cc3c2)n1 (stereo not drawn) [Compound 138, 3-[6-[5-(6-methyl-2-pyridyl)-1H-imidazol-4-yl]-3-quinolyl]cyclohex-2-en-1-amine] | 25.1 to 158 | 0.0398 to 0.316
Cc1cccc(-c2n[nH]cc2-c2ccc3ncc(-c4cc(C(F)(F)F)n[nH]4)cc3n2)n1 [Compound 139, 2-[3-(6-methyl-2-pyridyl)-1H-pyrazol-4-yl]-7-[3-(trifluoromethyl)-1H-pyrazol-5-yl]-1,5-naphthyridine] | 25.1 to 158 | 0.0398 to 0.316
Cc1cccc(-c2n[nH]cc2-c2ccc3ncc(N4CCC(N(C)C)CC4)cc3n2)n1 [Compound 141, N,N-dimethyl-1-[6-[3-(6-methyl-2-pyridyl)-1H-pyrazol-4-yl]-1,5-naphthyridin-3-yl]piperidin-4-amine] | 25.1 to 158 | < 0.0316
Cc1cccc(-c2[nH]cnc2-c2ccc3ncc(C4CCC(N)CC4)cc3c2)n1 (stereo not drawn) [Compound 142, 4-[6-[5-(6-methyl-2-pyridyl)-1H-imidazol-4-yl]-3-quinolyl]cyclohexanamine] | 25.1 to 158 | 0.398 to 3.16
Cc1cccc(-c2n[nH]cc2-c2ccc3ncc(-c4ncc5n4CCNC5)cc3n2)n1 [Compound 143, 2-[3-(6-methyl-2-pyridyl)-1H-pyrazol-4-yl]-7-(5,6,7,8-tetrahydroimidazo[1,5-a]pyrazin-3-yl)-1,5-naphthyridine] | 200 to 1260 | 0.0398 to 0.316
Cc1cccc(-c2n[nH]cc2-c2ccc3ncc(N4CCCN(C)CC4)cc3n2)n1 [Compound 144, 7-(4-methyl-1,4-diazepan-1-yl)-2-[3-(6-methyl-2-pyridyl)-1H-pyrazol-4-yl]-1,5-naphthyridine] | 25.1 to 158 | 0.0398 to 0.316
Cc1cccc(-c2[nH]cnc2-c2ccc3ncc(-c4ccc(C(=O)O)cc4)cc3c2)n1 [Compound 145, 4-[6-[5-(6-methyl-2-pyridyl)-1H-imidazol-4-yl]-3-quinolyl]benzoic acid] | 200 to 1260 | 0.0398 to 0.316
Cc1cccc(-c2[nH]ncc2-c2ccc3ncc(C(=O)OCCCCN4CCCC4)cc3n2)n1 [Compound 146, 4-pyrrolidin-1-ylbutyl 6-[5-(6-methyl-2-pyridyl)-1H-pyrazol-4-yl]-1,5-naphthyridine-3-carboxylate] | 25.1 to 158 | 0.0398 to 0.316
Cc1cccc(-c2[nH]cnc2-c2ccc3ncc(C4=CCCCC4)cc3c2)n1 [Compound 147, 3-(cyclohexen-1-yl)-6-[5-(6-methyl-2-pyridyl)-1H-imidazol-4-yl]quinoline] | 25.1 to 158 | 0.0398 to 0.316
Cc1cccc(-c2[nH]cnc2-c2ccc3ncc(N4C[C@@H](C)N[C@@H](C)C4)cc3c2)n1 [Compound 148, 3-[(3R,5S)-3,5-dimethylpiperazin-1-yl]-6-[5-(6-methyl-2-pyridyl)-1H-imidazol-4-yl]quinoline] | 25.1 to 158 | 0.0398 to 0.316
Cc1cccc(-c2[nH]cnc2-c2ccc3ncc(C4=CCC(N)CC4)cc3n2)n1 (stereo not drawn) [Compound 149, 4-[6-[5-(6-methyl-2-pyridyl)-1H-imidazol-4-yl]-1,5-naphthyridin-3-yl]cyclohex-3-en-1-amine] | 25.1 to 158 | < 0.0316
Cc1cccc(-c2[nH]cnc2-c2ccc3ncc(C4=CCC(NCC(CCO)C(=O)O)CC4)cc3c2)n1 (stereo not drawn) [Compound 150, 4-hydroxy-2-[[[4-[6-[5-(6-methyl-2-pyridyl)-1H-imidazol-4-yl]-3-quinolyl]cyclohex-3-en-1-yl]amino]methyl]butanoic acid] | 200 to 1260 | < 0.0316
Cc1cccc(-c2n[nH]cc2-c2ccc3ncc(N4CCC5NCCC5C4)cc3n2)n1 (stereo not drawn) [Compound 151, 7-(1,2,3,3a,4,6,7,7a-octahydropyrrolo[3,2-c]pyridin-5-yl)-2-[3-(6-methyl-2-pyridyl)-1H-pyrazol-4-yl]-1,5-naphthyridine] | 25.1 to 158 | 0.0398 to 0.316
CNCCn1ccc(-c2cnc3ccc(-c4nc[nH]c4-c4cccc(C)n4)nc3c2)n1 [Compound 152, N-methyl-2-[3-[6-[5-(6-methyl-2-pyridyl)-1H-imidazol-4-yl]-1,5-naphthyridin-3-yl]pyrazol-1-yl]ethanamine] | 25.1 to 158 | < 0.0316
Cc1cccc(-c2[nH]cnc2-c2ccc3ncc(C4=CCC(NC(=O)N5CCNCC5)CC4)cc3c2)n1 (stereo not drawn) [Compound 153, N-[4-[6-[5-(6-methyl-2-pyridyl)-1H-imidazol-4-yl]-3-quinolyl]cyclohex-3-en-1-yl]piperazine-1-carboxamide] | 200 to 1260 | 0.0398 to 0.316
Cc1cccc(-c2[nH]cnc2-c2ccc3nccc(C4CCCN4)c3c2)n1 (stereo not drawn) [Compound 154, 6-[5-(6-methyl-2-pyridyl)-1H-imidazol-4-yl]-4-pyrrolidin-2-yl-quinoline] | 200 to 1260 | 3.98 to 31.6
